Results from patent US12012385B1, “4,5-bis(4-methoxyphenyl)-1-hexyl-2-phenyl-1H-imidazole as an antimicrobial compound” (KING FAISAL UNIVERSITY, priority 2023, dated 2024).

Legend:
Ps. aeruginosa = assay: Antimicrobial testing, agar dilution method; type: cell-based, Pseudomonas aeruginosa; details: after 10, 20, 40 and 60 min at all dilutions 1:100, 1:200, 1:400, 1:800
Description: (§1) The antimicrobial properties of the, 5-bis(4-methoxyphenyl)-1-hexyl-2-phenyl-1H-imidazole was studied by the method of agar dilution. Test solutions of each compound was prepared in concentration of 1% using dimethylformamide as a solvent then they are diluted in physiological solution to obtain the final experimental dilutions 1:100, 1:200, 1:400, 1:800. The effect of these substances are compared with furacillin in a controllable study. The testing microbes used were gram positive bacteria St. aureus, gram negative bacteria E. Coli, Ps. aeruginosa and Candida albicans fungi were taken. The experiments used for this survey were meat-pentonlu agar (EPA) for cultivation of bacteria and Saburo environment for fungi. Each experiment used 1 ml of test solution on each plate 500 min. Add 2 drops of emulsified with microbes feel. All experimental samples were taken from the agar after 10, 20, 40, 60 minutes in the environment on the basis of Patrk planted. Bacteria were cultivated at a temperature of 37° C. for 1 day and the mushroom was kept in a thermostat for […] at a temperature of 28° C. Then the results were checked.

E. Coli = assay: Antimicrobial testing, agar dilution method; type: cell-based, Escherichia coli; details: after 10, 20, 40 and 60 min at all dilutions 1:100, 1:200, 1:400, 1:800
Description: as §1

St. aureus = assay: Antimicrobial testing, agar dilution method; type: cell-based, Staphylococcus aureus; details: after 10, 20, 40 and 60 min at all dilutions 1:100, 1:200, 1:400, 1:800
Description: as §1

Candida albicans = assay: Antimicrobial testing, agar dilution method; type: cell-based; details: after 10, 20, 40 and 60 min at all dilutions 1:100, 1:200, 1:400, 1:800
Description: as §1

- melting point: 177 to 179 °C
SMILES: CCCCCCn1c(-c2ccccc2)nc(-c2ccc(OC)cc2)c1-c1ccc(OC)cc1 [4,5-bis(4-methoxyphenyl)-1-hexyl-2-phenyl-1H-imidazole]
- inhibition activity (in words) (Ps. aeruginosa): higher inhibition activity
- inhibition activity (in words) (E. Coli): higher inhibition activity
- inhibition activity (in words) (St. aureus): higher inhibition activity
- inhibition activity (in words) (Candida albicans): higher inhibition activity
